Literature values in PubChem BioAssay AID1259409 (Chemical Carcinogenesis Research Information System (CCRIS), 2018).

System: rodent chemically induced tumor inhibition, incidence and multiplicity
Assay: CCRIS tumor inhibitor studies
Conditions: Dose [Inhibitor]: 0
From the text: The CCRIS database contains chemical records with carcinogenicity, mutagenicity, tumor promotion, and tumor inhibition test results. It was developed by the National Cancer Institute (NCI). Data are derived from studies cited in primary journals, current awareness tools, NCI reports, and other sources. Test results have been reviewed by experts in carcinogenesis and mutagenesis.
CCRIS provides historical information from the years 1985 - 2011. It is no longer updated.
This is an archive assay for CCRIS tumor inhibitor studies.

SMILES | tumour outcome (control, treated, inhibition, significance) (Carcinogen: 7,12-DIMETHYLBENZ[A]ANTHRACENE, 57-97-6, 36 MMOL/KG IN DIET FOR 24 WK BEGINNING 2 WK PRIOR TO CARCINOGEN DOSE (STUDY DURATION: 24 WK), Route [Inhibitor]: ORAL, Species: RAT, Strain/Sex: SPRAGUE-DAWLEY/FEMALE, Target Tissue: Type of Lesion: MAMMARY GLAND: TUMOR, Dose [Carcinogen]: 65 MG/KG BW ONCE, Promoter: NONE USED) | tumour outcome (control, treated, inhibition, significance) (1000 PPM IN DIET BEGINNING 8 WK PRIOR TO CARCINOGEN AND CONTINUING FOR 6 WK POST CARCINOGEN (STUDY DURATION: 68 WK), Route [Inhibitor]: ORAL, Species: FISH, Strain/Sex: RAINBOW TROUT, Target Tissue: Type of Lesion: LIVER: HEPATOCELLULAR CARCINOMA, Dose [Carcinogen]: 20 PPB IN DIET FOR 2 WK, Promoter: NONE USED) | tumour outcome (control, treated, inhibition, significance) (Carcinogen: 7,12-DIMETHYLBENZ[A]ANTHRACENE, 57-97-6, 0.01 UMOL IN 0.2 ML ACETONE 2/WK FOR 15 WK APPLIED 30 MIN PRIOR TO EACH PROMOTER DOSE (STUDY DURATION: 50 WK), Route [Inhibitor]: DERMAL, Species: MOUSE, Strain/Sex: SENCAR/FEMALE, Target Tissue: Type of Lesion: SKIN: CARCINOMA, Dose [Carcinogen]: 10 NMOL ONCE, Promoter: 12-O-TETRADECANOYLPHORBOL-13-ACETATE, 16561-29-8) | tumour outcome (control, treated, inhibition, significance) (Carcinogen: 7,12-DIMETHYLBENZ[A]ANTHRACENE, 57-97-6, 0.01 UMOL IN 0.2 ML ACETONE 2/WK FOR 15 WK APPLIED 30 MIN PRIOR TO EACH PROMOTER DOSE (STUDY DURATION: 50 WK), Route [Inhibitor]: DERMAL, Species: MOUSE, Strain/Sex: SENCAR/FEMALE, Target Tissue: Type of Lesion: SKIN: PAPILLOMA, Dose [Carcinogen]: 10 NMOL ONCE, Promoter: 12-O-TETRADECANOYLPHORBOL-13-ACETATE, 16561-29-8) | tumour outcome (control, treated, inhibition, significance) (Carcinogen: 7,12-DIMETHYLBENZ[A]ANTHRACENE, 57-97-6, 0.05 UMOL IN 0.2 ML ACETONE 2/WK FOR 15 WK APPLIED 30 MIN PRIOR TO EACH PROMOTER DOSE (STUDY DURATION: 50 WK), Route [Inhibitor]: DERMAL, Species: MOUSE, Strain/Sex: SENCAR/FEMALE, Target Tissue: Type of Lesion: SKIN: CARCINOMA, Dose [Carcinogen]: 10 NMOL ONCE, Promoter: 12-O-TETRADECANOYLPHORBOL-13-ACETATE, 16561-29-8) | tumour outcome (control, treated, inhibition, significance) (Carcinogen: 7,12-DIMETHYLBENZ[A]ANTHRACENE, 57-97-6, 0.05 UMOL IN 0.2 ML ACETONE 2/WK FOR 15 WK APPLIED 30 MIN PRIOR TO EACH PROMOTER DOSE (STUDY DURATION: 50 WK), Route [Inhibitor]: DERMAL, Species: MOUSE, Strain/Sex: SENCAR/FEMALE, Target Tissue: Type of Lesion: SKIN: PAPILLOMA, Dose [Carcinogen]: 10 NMOL ONCE, Promoter: 12-O-TETRADECANOYLPHORBOL-13-ACETATE, 16561-29-8) | tumour outcome (control, treated, inhibition, significance) (Carcinogen: 7,12-DIMETHYLBENZ[A]ANTHRACENE, 57-97-6, 0.5 UMOL IN 0.2 ML ACETONE 2/WK FOR 15 WK APPLIED 30 MIN PRIOR TO EACH PROMOTER DOSE (STUDY DURATION: 50 WK), Route [Inhibitor]: DERMAL, Species: MOUSE, Strain/Sex: SENCAR/FEMALE, Target Tissue: Type of Lesion: SKIN: CARCINOMA, Dose [Carcinogen]: 10 NMOL ONCE, Promoter: 12-O-TETRADECANOYLPHORBOL-13-ACETATE, 16561-29-8) | tumour outcome (control, treated, inhibition, significance) (Carcinogen: 7,12-DIMETHYLBENZ[A]ANTHRACENE, 57-97-6, 0.5 UMOL IN 0.2 ML ACETONE 2/WK FOR 15 WK APPLIED 30 MIN PRIOR TO EACH PROMOTER DOSE (STUDY DURATION: 50 WK), Route [Inhibitor]: DERMAL, Species: MOUSE, Strain/Sex: SENCAR/FEMALE, Target Tissue: Type of Lesion: SKIN: PAPILLOMA, Dose [Carcinogen]: 10 NMOL ONCE, Promoter: 12-O-TETRADECANOYLPHORBOL-13-ACETATE, 16561-29-8) | tumour outcome (control, treated, inhibition, significance) (Carcinogen: 7,12-DIMETHYLBENZ[A]ANTHRACENE, 57-97-6, 10 UMOL IN 0.2 ML ACETONE 2/WK FOR 20 WK APPLIED 30 MIN PRIOR TO EACH PROMOTER DOSE (STUDY DURATION: 50 WK), Route [Inhibitor]: DERMAL, Species: MOUSE, Strain/Sex: SENCAR/FEMALE, Target Tissue: Type of Lesion: SKIN: CARCINOMA, Dose [Carcinogen]: 10 NMOL ONCE, Promoter: 12-O-TETRADECANOYLPHORBOL-13-ACETATE, 16561-29-8) | tumour outcome (control, treated, inhibition, significance) (Carcinogen: 7,12-DIMETHYLBENZ[A]ANTHRACENE, 57-97-6, 10 UMOL IN 0.2 ML ACETONE 2/WK FOR 20 WK APPLIED 30 MIN PRIOR TO EACH PROMOTER DOSE (STUDY DURATION: 50 WK), Route [Inhibitor]: DERMAL, Species: MOUSE, Strain/Sex: SENCAR/FEMALE, Target Tissue: Type of Lesion: SKIN: PAPILLOMA, Dose [Carcinogen]: 10 NMOL ONCE, Promoter: 12-O-TETRADECANOYLPHORBOL-13-ACETATE, 16561-29-8)
CC(=O)/C=C/C1=C(C)CCCC1(C)C | 91%, 41%, 55%, not calculated | 43/118 (36%), 38/118 (32%), 11%, not significant |  |  |  |  |  |  |  | 
CCCCCCCCCCCCC/C=C/[C@@H](O)[C@@H](N)CO |  |  | 87%, 77%, 11%, not significant | 94%, 88%, 6%, not significant | 87%, 82%, 6%, not significant | 94%, 91%, 3%, not significant | 87%, 84%, 3%, not significant | 94%, 85%, 10%, not significant | 47%, 56%, -19%, not significant | 93%, 96%, -3%, not significant
